The target in one data set is Purified CYP3A4 (Homo sapiens, UniProt P08684, S18F). Conditions: for Soret peak / Soret trough: human, 20 µM, pH 7.4.
For another data set, the target named is CYP3A4 baculosomes (Homo sapiens, UniProt P08684). In words: Saturation kinetics of metabolism by CYP3A4. It counts as in vitro ADME.

Each structure is given as a SMILES string.

The source of these data is article PMC3257383 (Journal of Medicinal Chemistry, 2011).

On to `COc1ccc(NC(=O)c2cc(-c3ccccn3)nc3ccccc23)cc1` [Compound 9], for which, on Purified CYP3A4, the Binding mode entry is given as “Type I”, the Soret peak turned out to be 388 nm and the Soret trough came out at 417 nm.

Turning to `CN(C)c1ccc(NC(=O)c2cc(-c3ccccc3)nc3ccccc23)cc1` [Compound 2], on Purified CYP3A4, the Binding mode result is given as “Type I”, the Soret peak is reported as 385 nm and the Soret trough is on record as 416 nm.

`CN(C)c1ccc(NC(=O)c2cc(-c3cnccn3)nc3ccccc23)cc1` [Compound 14]: on Purified CYP3A4, the Binding mode result is recorded as “Type II”, the Soret peak is 425 nm and the Soret trough stood at 393 nm.

Regarding `COc1ccc(NC(=O)c2cc(-c3ccncc3)nc3ccccc23)cc1` [Compound 5], on Purified CYP3A4, the Binding mode result was “Type II”, the Soret peak came to 427 nm and the Soret trough worked out at 391 nm.

As for `O=C(Nc1ccccc1)c1cc(-c2cnccn2)nc2ccccc12` [Compound 15], at Purified CYP3A4, the Binding mode result was “Type II”, the Soret peak is 427 nm and the Soret trough came to 397 nm.

In the case of `O=C(Nc1ccccc1)c1cc(-c2ccncn2)nc2ccccc12` [Compound 19], on Purified CYP3A4, the Binding mode entry was “Type II”, the Soret peak was found to be 424 nm and the Soret trough was 390 nm.

In the case of `Cc1ccc(NC(=O)c2cc(-c3ccccc3)nc3ccccc23)cc1` [Compound 4], on Purified CYP3A4, the Binding mode result is “Type I”, the Soret peak was determined as 393 nm and the Soret trough came out at 417 nm.

With `Cc1ccc(NC(=O)c2cc(-c3ccncn3)nc3ccccc23)cc1` [Compound 20], on Purified CYP3A4, the Binding mode result was “Type II”, the Soret peak was determined as 425 nm and the Soret trough was found to be 390 nm.

`CN(C)c1ccc(NC(=O)c2cc(-c3ccncc3)nc3ccccc23)cc1` [Compound 6]: on Purified CYP3A4, the Binding mode entry was “Type II ^b”, the Soret peak was determined as 427 nm and the Soret trough is 392 nm. The “kcat smaller than type I binding compound 2” value on CYP3A4 baculosomes (compared with compound 2 of series 1) is on record as “more than 2 fold”. Also, the “kcat larger than type I binding compound 10” value at CYP3A4 baculosomes (compared with compound 10 of series 3) came to 1.2 times.

With `O=C(Nc1ccccc1)c1cc(-c2ccncc2)nc2ccccc12` [Compound 7], at Purified CYP3A4, the Binding mode result is recorded as “Type II”, the Soret peak turned out to be 427 nm and the Soret trough is reported as 394 nm. Besides, the “kcat higher than type I binding compounds 3 and 11” value at CYP3A4 baculosomes (compared with compounds 3 and 11) was “about 1.5 times”.

As for `COc1ccc(NC(=O)c2cc(-c3cnccn3)nc3ccccc23)cc1` [Compound 13], on Purified CYP3A4, the Binding mode result is recorded as “Type II”, the Soret peak was 423 nm and the Soret trough is given as 396 nm.

Take `COc1ccc(NC(=O)c2cc(-c3ccncn3)nc3ccccc23)cc1` [Compound 17]: at Purified CYP3A4, the Binding mode result is reported as “Type II”, the Soret peak is given as 425 nm and the Soret trough stood at 391 nm.

`O=C(Nc1ccccc1)c1cc(-c2ccccn2)nc2ccccc12` [Compound 11]: at Purified CYP3A4, the Binding mode entry is given as “Type I”, the Soret peak is 389 nm and the Soret trough is 418 nm.

In the case of `CN(C)c1ccc(NC(=O)c2cc(-c3ccncn3)nc3ccccc23)cc1` [Compound 18], at Purified CYP3A4, the Binding mode result is “Type II”, the Soret peak was 422 nm and the Soret trough is 392 nm.

On to `O=C(Nc1ccccc1)c1cc(-c2ccccc2)nc2ccccc12` [Compound 3], for which, at Purified CYP3A4, the Binding mode entry is listed as “Type I”, the Soret peak came out at 392 nm and the Soret trough worked out at 417 nm.

As for `Cc1ccc(NC(=O)c2cc(-c3ccccn3)nc3ccccc23)cc1` [Compound 12], at Purified CYP3A4, the Binding mode entry was “Type I”, the Soret peak is listed as 391 nm and the Soret trough turned out to be 416 nm.

Consider `CN(C)c1ccc(NC(=O)c2cc(-c3ccccn3)nc3ccccc23)cc1` [Compound 10], for which, at Purified CYP3A4, the Binding mode entry is listed as “Type I”, the Soret peak is listed as 386 nm and the Soret trough worked out at 416 nm.

For `Cc1ccc(NC(=O)c2cc(-c3cnccn3)nc3ccccc23)cc1` [Compound 16], on Purified CYP3A4, the Binding mode result is listed as “Type II”, the Soret peak is recorded as 422 nm and the Soret trough was 391 nm.

Regarding `Cc1ccc(NC(=O)c2cc(-c3ccncc3)nc3ccccc23)cc1` [Compound 8], at Purified CYP3A4, the Binding mode entry was “Type II”, the Soret peak is listed as 428 nm and the Soret trough turned out to be 392 nm. Also, the “rate of benzylic hydroxylation compared to O-demethylation of compound 5” value at CYP3A4 baculosomes (type II binding compounds, relative to aromatic hydroxylation in ring A) is reported as “about three fold faster”.
